# Test results reported in BindingDB's records for doi:10.1021/jm2004442 (Amgen, 2011).
# Target: RAC-alpha serine/threonine-protein kinase (Homo sapiens, UniProt P31749)
# Test: Inhibition of PI3K-mediated Akt phosphorylation at Ser 473 in human U87MG cells after 2 hrs by alphascreen assay
# Chain of RAC-alpha serine/threonine-protein kinase (P31749 whole entry): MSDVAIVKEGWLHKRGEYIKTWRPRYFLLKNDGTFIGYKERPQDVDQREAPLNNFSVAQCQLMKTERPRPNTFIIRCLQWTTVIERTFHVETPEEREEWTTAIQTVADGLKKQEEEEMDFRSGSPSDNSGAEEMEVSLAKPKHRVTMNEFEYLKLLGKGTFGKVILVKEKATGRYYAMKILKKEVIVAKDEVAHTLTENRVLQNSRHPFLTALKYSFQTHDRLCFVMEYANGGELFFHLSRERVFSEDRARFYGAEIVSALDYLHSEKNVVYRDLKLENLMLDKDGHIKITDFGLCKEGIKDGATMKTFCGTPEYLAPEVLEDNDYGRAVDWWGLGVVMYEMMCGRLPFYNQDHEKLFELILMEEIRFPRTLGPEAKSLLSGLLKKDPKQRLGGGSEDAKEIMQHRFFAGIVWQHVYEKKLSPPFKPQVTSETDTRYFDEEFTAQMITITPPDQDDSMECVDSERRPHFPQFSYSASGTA
row,Structure (SMILES),IC50
1,CC(=O)Nc1cn2nc(-c3cnc(Cl)c(NS(=O)(=O)c4ccc(F)cc4)c3)ccc2n1,13 nM
2,CC(=O)Nc1cn2cc(-c3cnc(Cl)c(NS(=O)(=O)c4ccc(F)cc4)c3)ccc2n1,118 nM
3,Nc1nc2ccc(-c3cnc(Cl)c(NS(=O)(=O)c4ccc(F)cc4)c3)cc2o1,101 nM
4,O=S(=O)(Nc1cc(-c2ccc3nccn3c2)cnc1Cl)c1ccc(F)cc1,574 nM
5,CC(=O)Nc1nc2ccc(-c3cnc(Cl)c(NS(=O)(=O)c4ccc(F)cc4)c3)cc2[nH]1,335 nM
6,O=S(=O)(Nc1cc(-c2ccc3nncn3c2)cnc1Cl)c1ccc(F)cc1,> 12000 nM
7,Nc1cn2nc(-c3cnc(Cl)c(NS(=O)(=O)c4ccc(F)cc4)c3)ccc2n1,415 nM
8,O=S(=O)(Nc1cc(-c2ccc3sncc3c2)cnc1Cl)c1ccc(F)cc1,> 12000 nM
9,CC(=O)Nc1nc2ccc(-c3cnc(Cl)c(NS(=O)(=O)c4ccc(F)cc4)c3)cc2o1,1100 nM
10,Nc1cn2cc(-c3cnc(Cl)c(NS(=O)(=O)c4ccc(F)cc4)c3)ccc2n1,> 12000 nM
11,O=S(=O)(Nc1cc(-c2ccc3ncoc3c2)cnc1Cl)c1ccc(F)cc1,> 12000 nM
12,Nc1nc2ccc(-c3cnc(Cl)c(NS(=O)(=O)c4ccc(F)cc4)c3)cc2[nH]1,> 12000 nM
13,O=S(=O)(Nc1cc(-c2ccc3nc[nH]c3c2)cnc1Cl)c1ccc(F)cc1,> 12000 nM
